Experimental data published in patent US20100168093A1, “SUBSTITUTED 3-AMINO-4 -HYDROXY PYRROLIDINES COMPOUNDS, THEIR PREPARATION AND USE AS MEDICAMENTS” (priority 2006, published 2010).
Where a name gives a salt, the structure may show the parent alone.

Molecular target: T1, Sigma-1 receptor (Cavia porcellus, UniProt Q60492)
T1 construct: guinea pig brains were homogenized; from tissue; host or cells: guinea pig brain membranes
Assay: Sigma-1 receptor binding assay, [3H](+)-pentazocine displacement in brain membranes
Conditions: 2.5 h, compound at 10^−7 M; [3H](+)-pentazocine 0.5 nM; guinea pig brain membranes; non-specific binding defined by 1 μM haloperidol; read-out: Percent Replacement Sigma-1 receptor [10^−7 M]
Protocol: Some representative compounds of the invention were tested for their activity as sigma (sigma-1) inhibitors. The following protocol was followed:
Brain membrane preparation and binding assays for the σ1-receptor were performed as described (DeHaven-Hudkins et al., 1992, Eur. J. Pharmacol. 227, 371-378.) with some modifications. In brief, guinea pig brains were homogenized in 10 vols. (w/v) of Tris-HCl 50 mM 0.32 M sucrose, pH 7.4, with a Kinematica Polytron PT 3000 at 15000 r.p.m. for 30 s. The homogenate was centrifuged at 1000g for 10 min at 4° C. and the supematants collected and centrifuged again at 48000 g for 15 min at 4° C. The pellet was resuspended in 10 volumes of Tris-HCl buffer (50 mM, pH 7.4), incubated at 37° C. for 30 min, and centrifuged at 48000 g for 20 min at 4° C. Following this, the pellet was resuspended in fresh Tris-HCl buffer (50 mM, pH 7.4) and stored on ice until use.
Each assay tube contained 10 μL of [^3H](+)-pentazocine (final concentration of 0.5 nM), 900 μL of the tissue suspension to a final assay volume of 1 mL and a final tissue concentration of approximately 30 mg tissue net weight/mL. Non-specific binding was defined by addition of a final concentration of 1 μM haloperidol. All tubes were incubated at 37° C. for 150 min before termination of the reaction by rapid filtration over Schleicher & Schuell GF 3362 glass fibre filters [previously soaked in a solution of 0.5% polyethylenimine for at least 1 h]. Filters were then washed with four times with 4 mL of cold Tris-HCl buffer (50 mM, pH 7.4). Following addition of scintillation cocktail, the samples were allowed to equilibrate overnight. The amount of bound radioactivity was determined by liquid scintillation spectrometry using a Wallac Winspectral 1414 liquid scintillation counter. Protein concentrations were determined by the method of Lowry et al. (1951; J. Biol. Chem, 193, 265.).

T1 sequence (Q60492 whole entry): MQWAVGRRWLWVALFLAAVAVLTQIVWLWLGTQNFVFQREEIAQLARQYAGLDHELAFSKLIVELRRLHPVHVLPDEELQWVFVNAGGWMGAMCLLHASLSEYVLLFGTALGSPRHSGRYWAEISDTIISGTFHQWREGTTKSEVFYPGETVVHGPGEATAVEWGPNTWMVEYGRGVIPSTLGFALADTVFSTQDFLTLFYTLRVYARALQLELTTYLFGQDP

Structure (SMILES)	inhibition at 0.1 µM [%]
CC(=O)O[C@@H]1CN(Cc2ccccc2)C[C@H]1N1CCN(S(=O)(=O)c2ccc(C)cc2)CC1 [Example 56, (3,4-trans)-1-benzyl-4-(4-tosylpiperazin-1-yl)pyrrolidin-3-yl acetate dihydrochloride]	38
O[C@@H]1CN(Cc2ccccc2)C[C@H]1N1CCN(c2ccccc2Cl)CC1 [Example 85]	107
O[C@@H]1CN(Cc2ccccc2)C[C@H]1NCCCN1CCc2ccccc2C1 [Example 9, (3,4-trans)-1-benzyl-4-(3-(3,4-dihydroisoquinolin-2(1H)-yl)propylamino)pyrrolidine-3-ol]	38.6
Cc1ccc(S(=O)(=O)N2CCN([C@@H]3CN(Cc4ccccc4)C[C@H]3O)CC2)cc1 [Example 57, (3,4-trans)-1-benzyl-4-(4-tosylpiperazin-1-yl)pyrrolidin-3-ol dihydrochloride]	16.8
O=S(=O)(c1ccccc1F)N1CCN([C@@H]2CN(Cc3ccccc3)C[C@H]2O)CC1 [Example 76, (3,4-trans)-1-benzyl-4-(4-(2-fluorophenylsulfonyl)piperazin-1-yl)pyrrolidin-3-ol dihydrochloride]	85
Cc1ccc(F)cc1S(=O)(=O)N1CCN([C@@H]2CN(Cc3ccccc3)C[C@H]2O)CC1 [Example 70, (3,4-trans)-1-benzyl-4-(4-(5-fluoro-2-methylphenylsulfonyl)piperazin-1-yl)pyrrolidin-3-ol dihydrochioride]	81.4
O[C@@H]1CN(Cc2ccccc2)C[C@H]1N1CCc2ccccc2C1 [Example 1, (3,4-trans)-1-benzyl-4-(3,4-dihydroisoquinolin-2(1H)-yl)pyrrolidine-3-ol]	84.9
COc1ccc(CN[C@@H]2CN(Cc3ccccc3)C[C@H]2O)cc1 [Example 32, (3,4-trans)-1-benzyl-4-(4-methoxybenzylamino)pyrrolidin-3-ol]	59.1
O[C@@H]1CN(Cc2ccccc2)C[C@H]1N1CCN(Cc2c(F)cccc2Cl)CC1 [Example 78, (3,4-trans)-1-benzyl-4-(4-(2-chloro-6-fluorobenzyl)piperazin-1-yl)pyrrolidine-3-ol]	81.9
O[C@@H]1CN(Cc2ccccc2)C[C@H]1N1CCN(c2ccc(Cl)c(Cl)c2)CC1 [Example 88, (3,4-trans)-1-benzyl-4-(4-(3,4-dichlorophenyl)piperazin-1-yl)pyrrolidin-3-ol]	93.1
CC(=O)O[C@@H]1CN(Cc2ccccc2)C[C@H]1N1CCN(C(=O)OC(C)(C)C)CC1 [Example 24]	73
CC(=O)O[C@@H]1CN(Cc2ccccc2)C[C@H]1N1CCN(S(=O)(=O)c2cccc3ccccc23)CC1 [Example 60, (3,4-trans)-1-benzyl-4-(4-(naphthalen-1-ylsulfonyl)piperazin-1-yl)pyrrolidin-3-yl acetate dihydrochloride]	40.8
O=S(=O)(c1ccccc1Br)N1CCN([C@@H]2CN(Cc3ccccc3)C[C@H]2O)CC1 [Example 67, (3,4-trans)-1-benzyl-4-(4-(2-bromophenylsulfonyl)piperazin-1-yl)pyrrolidin-3-ol dihydrochloride]	86.7
O[C@@H]1CN(Cc2ccccc2)C[C@H]1N1CCC(CN2CCc3ccccc3C2)CC1 [Example 5, (3,4-trans)-1-benzyl-4-(4-((3,4-dihydrolsoquinolin-2(1H)-yl)methyl)piperidin-1-yl)pyrrolidine-3-ol]	63.5
COc1ccc(N[C@@H]2CN(Cc3ccccc3)C[C@H]2O)cc1 [Example 37, (3R,4R)-1-benzyl-4-(4-methoxyphenylamino)pyrrolidin-3-ol]	65.4
CC(C)(C)OC(=O)N1CCN([C@@H]2CN(Cc3ccccc3)C[C@H]2O)CC1 [Example 12, tert-butyl-4-((3,4-trans)-1-benzyl-4-hydroxypyrrolidine-3-yl)piperazine-1-carboxylate]	96.5
O[C@@H]1CN(Cc2ccccc2)C[C@H]1N1CCN(Cc2ccc(Cl)c(Cl)c2)CC1 [Example 79, (3,4-trans)-1-benzyl-4-(4-(3,4-dichlorobenzyl)piperazin-1-yl)pyrrolidine-3-ol]	88.4

More lines, now with the values ahead:

inhibition at 0.1 µM [%]	Structure (SMILES)
39.3	O[C@@H]1CN(Cc2ccccc2)C[C@H]1Nc1ccccc1 [Example 29, (3,4-trans)-1-benzyl-4-(phenylamino)pyrrolidin-3-ol]
81.1	O[C@@H]1CN(Cc2ccccc2)C[C@H]1N1CCc2cccc3c2C1CC3 (stereo partly drawn) [Example 11, (3,4-trans)-1-benzyl-4-(2,3,8,8a-tetrahydrocyclopenta[ij]isoquinolin-1(7H)-yl)pyrrolidine-3-ol]
49.9	C[C@@H](c1ccccc1)N1C[C@@H](O)[C@H](N2CCc3ccccc3C2)C1 [Example 16, (3,4-trans)-4-(3,4-dihydroisoquinolin-2(1H)-yl)-1((S)-1-phenylethyl)pyrrolidine-3-ol]
69.7	O[C@@H]1CN(Cc2ccccc2)C[C@H]1N1CCN(c2ccc(F)cc2)CC1 [Example 83, (3,4-trans)-1-benzyl-4-(4-(4-fluorophenyl)piperazin-1-yl)pyrrolidin-3-ol]
46.1	O=S(=O)(c1ccccc1F)N1CCN([C@H]2CN(Cc3ccccc3)C[C@@H]2O)CC1 [Example 77, (3S,4S)-1-benzyl-4-(4-(2-fluorophenylsulfonyl)piperazin-1-yl)pyrrolidin-3-ol dihydrochloride]
24.7	CC(=O)O[C@@H]1CN(Cc2ccccc2)C[C@H]1N1CCN(S(=O)(=O)c2ccccc2-c2ccccc2)CC1 (relative stereo) [Example 27, trans 1-Benzyl-4-(4-(2-phenyl-phenylsulfonyl)piperazin-1-yl)pyrrolidin-3-yl acetate]
95.5	CC(=O)O[C@@H]1CN(Cc2ccccc2)C[C@H]1N1CCN(S(=O)(=O)c2ccccc2F)CC1 [Example 75, (3,4-trans)-1-benzyl-4-(4-(2-fluorophenylsulfonyl)piperazin-1-yl)pyrrolidin-3-yl acetate dihydrochloride]
77.8	COc1ccnc(N2CCN([C@@H]3CN(Cc4ccccc4)C[C@H]3O)CC2)n1 [Example 10, (3,4-trans)-1-benzyl-4-(4-(4-methoxypyrimidin-2-yl)piperazin-1-yl)pyrrolidine-3-ol]
55.9	COC(=O)c1ccc(N[C@@H]2CN(Cc3ccccc3)C[C@H]2O)cc1 [Example 38, Methyl 4-((3,4-trans)-1-benzyl-4-hydroxypyrrolidin-3-ylamino)benzoate]
89.9	CCCCCCCCN[C@@H]1CN(Cc2ccccc2)C[C@H]1O [Example 31, (3R,4R)-1-benzyl-4-(octylamino)pyrrolidin-3-ol]
92.4	CC(=O)O[C@@H]1CN(Cc2ccccc2)C[C@H]1N1CCN(S(=O)(=O)c2ccccc2Cl)CC1 [Example 52, (3R,4R)-1-benzyl-4(4-(2-chlorophenylsulfonyl)piperazin-1-yl)pyrrolidin-3-yl acetate]
86.2	O[C@H]1CN(Cc2ccccc2)C[C@@H]1N1CCN(c2ccccc2Cl)CC1 [Example 86, (3S,4S)-1-benzyl-4-(4-(2-chlorophenyl)piperazin-1-yl)pyrrolidin-3-ol]
84	O=S(=O)(c1ccccc1)N1CCN([C@@H]2CN(Cc3ccccc3)C[C@H]2O)CC1 [Example 73, (3,4-trans)-1-benzyl-4-(4-(phenylsulfonyl)piperazin-1-yl)pyrrolidin-3-ol]
30.1	O=S(=O)(c1cccc2ccccc12)N1CCN([C@@H]2CN(Cc3ccccc3)C[C@H]2O)CC1 [Example 61, (3,4-trans)-1-benzyl-4-(4-(naphthalen-1-ylsulfonyl)piperazin-1-yl)pyrrolidin-3-ol dihydrochloride]

Same assay, conditions: compound at 10^−7 M; [3H](+)-pentazocine 0.5 nM; guinea pig brain membranes; non-specific binding defined by 1 μM haloperidol

Percent Replacement Sigma-1 receptor [10^−7 M] [%]	Structure (SMILES)
94.6	O[C@@H]1CN(Cc2ccccc2)C[C@H]1N1CCN(c2ccccc2Cl)CC1 [Example 84, (3,4-trans)-1-benzyl-4-(4-(2-chlorophenyl)piperazin-1-yl)pyrrolidin-3-ol]
96.5	O=S(=O)(c1ccccc1F)N1CCN([C@@H]2CN(Cc3ccccc3)C[C@H]2O)CC1 [Example 48, (3R,4R)-1-benzyl-4-(4-(2-fluorophenylsulfonyl)piperazin-1-yl)pyrrolidin-3-ol]

System: not given
Assay: not given
Conditions: not given

melting point [°C]	Structure (SMILES)
130 to 134	O=C(c1ccccc1)N1CCN([C@@H]2CN(Cc3ccccc3)C[C@H]2O)CC1 [Example 20, (4-((3,4-trans)-1-benzyl-4-hydroxypyrrolidine-3-yl)piperazin-1-yl)(phenyl)methanone]
